Assays:
[1] = system: OXA-induced Balb/c mouse atopic dermatitis model; test: Pharmacodynamic test in the OXA-induced mouse atopic dermatitis model; type: in vivo, female Balb/c mice
Source text: The purpose of this test was to evaluate the pharmacodynamics of Compound (I) in the OXA-induced Balb/c mouse atopic dermatitis model. Repeated OXA stimulation of the dorsal skin of mice could produce a long-term inflammatory reaction. This model was closer to the clinical skin inflammation and was a common model for screening and evaluating compounds with anti-inflammatory activity.
Female Balb/c mice aged 8-9 weeks, number: 70
According to the body weight of animals in each group before administration, they were randomly divided into 7 groups with 10 animals in each group.
OXA induction was performed on the 7th day. The induction mode was to apply 5% OXA (dissolved in the acetone/olive oil (4/1) solvent) to the back of mice near the neck in an amount of 10 μL (1.5 cm×1.5 cm). Mice in the normal control group were applied with 10 μL of the acetone/olive oil (4/1) solvent in the same way. From the 1st da to 22nd day, the immunostimulation was performed, and 100 μL of 0.1% OXA (dissolved in the acetone/olive oil (4/1) solvent) was evenly applied on the back of mice near the neck. The application was performed every two days. Mice in the normal control group were applied with 100 μL of the acetone/olive oil (4/1) solvent in the same way. On the day of the immunostimulation, measuring the skin thickness, clinically scoring and photographing were required, and the OXA application was carried out after the above work was completed.
Compound (I) was administered by gavage twice a day (PO, bid) from the 1st to 22nd day. The administration was performed in the morning and completed before measuring the skin thickness, clinically scoring, photographing, and the OXA immunostimulation. The interval between two administrations was 8 hours.
Body weight data were recorded twice a week.
Skin thickness (1.5 cm×1.5 cm, the modeling area) was measured with a Mitutoyo digital indicator (Mitutoyo digimatic indicator, Type ID-C, USA) from the 1st to 22nd day. The measurement was performed every two days. If the skin thickness measurement and the OXA immunostimulation were performed on the same day, the skin thickness measurement would be preferred.
The skin in the modeling area was clinically scored according to the skin scoring criteria in Table 12 from the 1st to 22nd day and evaluated every two days. If the skin clinical scoring and the OXA immunostimulation were performed on the same day, the skin clinical scoring would be preferred.
At the end of the study, the tissue in the modeling area was stained with hematoxylin eosin for the skin pathological scoring and the epidermal thickness measurement.
After the mice were sacrificed, the dorsal skin was removed and fixed in 10% neutral formalin for 24 hours. It was dehydrated, then embedded in paraffin and made into 4-micron sections. The skin sections were stained with hematoxylin eosin, and the inflammatory cell infiltration and tissue changes in the stratum corneum, the epidermis layer and the dermis layer were observed under the microscope, and the pathological scores were made. The scoring criteria were: inflammatory cell aggregation and edema, which were divided into slight 1 point, moderate 2 points, and severe 3 points; telangiectasia, which was divided into slight 1 point, moderate 2 points, and severe 3 points.
The specific scoring criteria of inflammatory cell aggregation were as follows: (1) slight-1 point: inflammatory cells occupied a small amount of <10% of the dermal area of the skin; (2) moderate-2 points: inflammatory cells occupied 10%-50% of the dermal area of the skin; (3) severe-3 points: the inflammatory cells occupied greater than 50% of the dermal area of the skin. […]

[2] = in vivo; design: species or system SD rats; settings: SD, rat, po
Protocol: (§1) According to the general toxicology study in accordance with the NMPA “Good Laboratory Practice for Non-clinical Laboratory Studies” and FDA GLP specification (21CFR Part 58), and in line with the requirements of International Conference on Harmonization of Technical Requirements for Registration of Pharmaceuticals for Human Use (ICH) and the NMPA relevant guidelines, the toxicology study on Compound (I) was carried out to provide safety data support for the use of Compound (I) in clinical patients. The administration mode and the experimental results were as follows: […]

[3] = Toxicity test of single oral gavage administration in Beagle dogs; type: in vivo; settings: administered twice within 24 hours
Protocol: as §1

[4] = Phase I clinical trial, single ascending dose; type: in vivo; settings: human; single ascending dose up to 240 mg
Protocol: Compound (I) had no effect on the central nervous system, respiratory system and cardiovascular system of animals, and was expected to have no side effects on the central nervous system, respiratory system and cardiovascular system of human. The NOAEL of single administration to rats was 2000 mg/kg, the MTD of administration to Beagle dogs was 500 mg/kg/time (1000 mg/kg/day), the NOAEL of repeated administration to rats for 28 days was 10 mg/kg/time (20 mg/kg/day), and the NOAEL of repeated administration to Beagle dogs for 28 days was 3 mg/kg/time (6 mg/kg/ day). […] The effective dose for rats was 3 mg/kg/time bid. According to the exposure, Compound (I) had 1-fold safety window in Beagles and 8-13-fold safety window in SD rats. According to the dose calculation, Compound (I) had 3-fold safety windows in both Beagle dogs and SD rats. The proposed and undetermined initial ascending dose of Compound (I) in the first-in-human trial was 15 mg. […] Therefore, according to the pre-clinical toxicological study data of Compound (I), the single ascending doses of phase I clinical trial to be carried out were 15 mg, 45 mg, 60 mg, 90 mg, 135 mg, 180 mg, 240 mg, 300 mg and 360 mg.

[5] = Genotoxicity
[6] = Effect on central nervous, respiratory and cardiovascular system of animals; type: in vivo
Protocol: as §1

[7] = 3 mpk PO bid, after 22 days of treatment

In the case of `NC(=O)c1cnc(Nc2ccc3c(c2)OC[C@H]2CN(S(=O)(=O)C4CC4)CCN32)nc1NC1CC1` [Compound (I), (R)-4-(cyclopropylamino)-2-((3-(cyclopropylsulfonyl)-1,2,3,4,4a,5-hexahydrobenzo[b]pyrazolo[1,2-d][1,4]oxazin-8-yl)amino)pyrimidine-5-arboxamide], the “Influence on the body weight of mice” value ([1]; 3, 10, 30 and 60 mpk PO bid, end of the study) is reported as “no significant influence on the body weight of mice”, the Body weight ([1]; 3 mpk PO bid, 1st Day) is reported as 18.11 ± 0.13 g and the Skin clinical score ([1]; 3 mpk PO bid, 1st Day) is reported as 0.4 ± 0.16. For the same compound, the “Skin thickness (modeling area)” value ([1]; 3 mpk PO bid, 1st day) was 0.511 ± 0.016 mm, the Body weight ([1]; 3 mpk PO bid, 7th Day) was 18.83 ± 0.20 g and the “Skin thickness (modeling area)” value ([1]; 3 mpk PO bid, 7th day) was 0.944 ± 0.026 mm. The Skin clinical score ([1]; 3 mpk PO bid, 9th day) was 3.1 ± 0.10, the “Skin thickness (modeling area)” value ([1]; 3 mpk PO bid, 17th day) was 1.361 ± 0.043 mm and the Skin clinical score ([1]; 3 mpk PO bid, 19th day) was 2.9 ± 0.10. For the same compound, the Skin clinical score ([1]; 3 mpk PO bid, 22nd day) was 3.0 ± 0.00, the “Skin thickness (modeling area)” value ([1]; 3 mpk PO bid, 22nd day) was 1.368 ± 0.028 mm and the Epidermal thickness [1, 7] was 75.79 ± 3.36 μm. It also gave a Pathological score [1, 7] of 6.4 ± 0.34, a Body weight ([1]; 3 mpk PO bid, −7th Day) of 18.11 ± 0.13 g and a Body weight ([1]; 10 mpk PO bid, 1st Day) of 18.11 ± 0.13 g. For the same compound, the Skin clinical score ([1]; 10 mpk PO bid, 1st Day) was 0.4 ± 0.16, the “Skin thickness (modeling area)” value ([1]; 10 mpk PO bid, 1st day) was 0.535 ± 0.027 mm and the Body weight ([1]; 10 mpk PO bid, 7th Day) was 18.80 ± 0.22 g. For the same compound, the “Skin thickness (modeling area)” value ([1]; 10 mpk PO bid, 7th day) was 0.958 ± 0.026 mm, the Skin clinical score ([1]; 10 mpk PO bid, 9th day) was 3.0 ± 0.00 and the “Skin thickness (modeling area)” value ([1]; 10 mpk PO bid, 17th day) was 1.257 ± 0.020 mm. The Skin clinical score ([1]; 10 mpk PO bid, 19th day) was 2.7 ± 0.15, the Skin clinical score ([1]; 10 mpk PO bid, 22nd day) was 2.7 ± 0.15 and the “Skin thickness (modeling area)” value ([1]; 10 mpk PO bid, 22nd day) was 1.338 ± 0.021 mm. It also gave a Body weight ([1]; 10 mpk PO bid, −7th Day) of 18.11 ± 0.13 g, a Body weight ([1]; 30 mpk PO bid, 1st Day) of 18.10 ± 0.12 g and a Skin clinical score ([1]; 30 mpk PO bid, 1st Day) of 0.5 ± 0.17. For the same compound, the “Skin thickness (modeling area)” value ([1]; 30 mpk PO bid, 1st day) was 0.534 ± 0.029 mm, the Body weight ([1]; 30 mpk PO bid, 7th Day) was 18.79 ± 0.11 g and the “Skin thickness (modeling area)” value ([1]; 30 mpk PO bid, 7th day) was 0.976 ± 0.021 mm. It also gave a Skin clinical score ([1]; 30 mpk PO bid, 9th day) of 3.0 ± 0.00, a Body weight ([1]; 30 mpk PO bid, −7th Day) of 18.10 ± 0.12 g and a Body weight ([1]; 60 mpk PO bid, 1st Day) of 18.10 ± 0.12 g. The Skin clinical score ([1]; 60 mpk PO bid, 1st Day) was 0.6 ± 0.16, the “Skin thickness (modeling area)” value ([1]; 60 mpk PO bid, 1st day) was 0.556 ± 0.035 mm and the Body weight ([1]; 60 mpk PO bid, 7th Day) was 18.92 ± 0.13 g. For the same compound, the “Skin thickness (modeling area)” value ([1]; 60 mpk PO bid, 7th day) was 0.993 ± 0.033 mm, the Skin clinical score ([1]; 60 mpk PO bid, 9th day) was 3.0 ± 0.00 and the Body weight ([1]; 60 mpk PO bid, −7th Day) was 18.10 ± 0.12 g. It also gave an NOAEL [2] of 2000 mg/kg, an MTD [3] of 500 mg/kg/time and an MTD at 24 h ([3]; dog, in vivo) of 1000 mg/kg/day. The “Safety in phase I clinical trial” value [4] was “no safety issues above Level 3”, the Genotoxicity [5] was “no genotoxicity” and the “Effect on the central nervous system, respiratory system and cardiovascular system” value [6] was “no effect”.
